Read-outs that look alike come from different tables or passages of the source.
Columns and labels:
[1] = Figure 1, previously reported; cited from earlier work
[2] = Figure 1, previously reported; cited from earlier work; remark: listed apart in the source
[3] = pharmacokinetics in CD-1 mice; assay type: in vivo; details: male, plasma, CD-1 mouse; for Vd: read-out: Vss; for bioavailability: po 10 mg/kg vs iv 2 mg/kg
[4] = pilot toxicity / tolerability study in CD-1 mice; details: po 50 mg/kg, QD*5, 5 days observation
[5] = mouse, in vivo, po, 50 mg/kg
[6] = iv 2 mg/kg, observed at t = 5 min

Row | Compound | AUC(0-inf) ([3]; iv 2 mg/kg) [ng·h/mL] | Cmax [3, 6] [ng/mL] | Vd ([3]; iv 2 mg/kg) [L/kg] | AUC(0-inf) ([3]; po 10 mg/kg) [ng·h/mL] | Cmax ([3]; po 10 mg/kg) [ng/mL] | bioavailability [3] [%] | RLM [1] [min] | solubility [2] [µg/mL] | tolerability [4] | tolerability [5]
1 | CC(C)CCn1c(CN2CCN(C(=O)C3CC3)CC2)nc2c1c(=O)n(C)c(=O)n2C [Compound 4] | – | – | – | – | – | – | > 30 | > 62 | – | –
2 | CS(=O)(=O)N1CCN(C(=O)c2cnc3ccc(F)cc3c2N2CCC(C#N)(c3ccccc3)CC2)CC1 [Compound 86, 1-(6-Fluoro-3-(4-(methylsulfonyl)piperazine-1-carbonyl)quinolin-4-yl)-4-phenylpiperidine-4-carbonitrile] | – | – | – | – | – | – | – | – | no significant weight loss or abnormal clinical signs and no mortality was observed | –
3 | CS(=O)(=O)N1CCN(C(=O)c2cnc3ccc(F)cc3c2-c2ccc(C3(C#N)CC3)cc2)CC1 [Compound 91, 1-(4-(6-Fluoro-3-(4-(methylsulfonyl)piperazine-1-carbonyl)quinolin-4-yl)phenyl)cyclopropanecarbonitrile] | – | – | – | – | – | – | – | – | – | no significant weight loss or abnormal clinical signs and no mortality was observed
4 | CS(=O)(=O)N1CCN(C(=O)c2cnc3ccc(Cl)cc3c2-c2ccc(C3(C#N)CC3)cc2)CC1 [Compound 119] | 1130 | – | 1.14 | 2760 | 1470 | 49 | – | – | – | –

More lines, main results first:

Row | AUC(0-inf) ([3]; iv 2 mg/kg) [ng·h/mL] | Cmax [3, 6] [ng/mL] | Vd ([3]; iv 2 mg/kg) [L/kg] | AUC(0-inf) ([3]; po 10 mg/kg) [ng·h/mL] | Cmax ([3]; po 10 mg/kg) [ng/mL] | bioavailability [3] [%] | Compound | RLM [1] [min] | solubility [2] [µg/mL] | tolerability [4] | tolerability [5]
5 | 505 | 1500 | 1.2 | 227 | 215 | 9 | N#CC1(c2ccccc2)CCN(c2c(C(=O)N3CCN(C(=O)C4CC4)CC3)cnc3ccc(F)cc23)CC1 [Compound 78] | – | – | – | –
6 | 661 | 1800 | 0.72 | 844 | 1110 | 30 | CN(C)C(=O)N1CCN(C(=O)c2cnc3ccc(F)cc3c2N2CCC(C#N)(c3ccccc3)CC2)CC1 [Compound 108] | – | – | – | –
7 | 459 | 1100 | 1.39 | 720 | 471 | 31 | CS(=O)(=O)N1CCN(C(=O)c2cnc3ccc(Cl)cc3c2N2CCC(C#N)(c3ccccc3)CC2)CC1 [Compound 109] | – | – | – | –
8 | 1410 | 1960 | 2.2 | 2140 | 1170 | 30 | CN(C)C(=O)N1CCN(C(=O)c2cnc3ccc(F)cc3c2-c2ccc(C3(C#N)CC3)cc2)CC1 [Compound 118] | – | – | – | –

Reference: publication PMC6004562, “Discovery of Orally Bioavailable, Quinoline-Based Aldehyde Dehydrogenase 1A1 (ALDH1A1) Inhibitors with Potent Cellular Activity” (Journal of Medicinal Chemistry, 2018)
